This is an account of results in patent US10144742B2 (Millennium Pharmaceuticals, Inc., priority 2014, dated 2018).

One assay deals with hNAMPT protein (Homo sapiens (Human), UniProt P43490). Kind of assay: NAMPT enzyme assay (TR-FRET/HTRF, BodiPY ligand, anti 6His-Tb). Format: binding. The conditions noted are these: for IC50: NAMPT IC50 range class, read-out: IC50; for inhibition at 1 µM: read-out: Percent Inhibition. An outline of the steps:
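Compound or DMSO was incubated for 1 h at room temperature, protected from light, with BodiPY ligand and hNAMPT labelled by terbium anti-6His antibody. The 520 nm to 486 nm emission ratio after 320 nm excitation gave inhibition versus vehicle, from which concentration-response curves yielded IC50.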

The subject of a further assay is PC3 cells. Kind of assay: PC3 growth inhibition (Cell-titer glo, 72 hours). The conditions noted are these: Homo sapiens, read-out: Percent Inhibition (PC3 growth inhibition); for inhibition at 1.667 µM: compound concentration 1.667 μM. It counts as cell-based. An outline of the steps: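 Compounds in AIM serum-free medium were applied for 72 h at 37 °C, 5% CO2 to PC3 cells plated overnight from RPMI1640 culture. Luminescence after 10 min CellTiter-Glo, normalised to DMSO, gave % viability at 1 μM or 1.667 μM, or GI50/LD50.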

The mark [1] stands for this setting: PC-3, compound concentration 1 μM, PC3 cells, 72 hours, Cell-titer glo.
The mark [2] stands for this setting: PC-3, PC3 cells, 72 hours, Cell-titer glo.

Like-named read-outs stand apart in the source and are kept apart here.

Chain of hNAMPT protein (P43490 whole entry): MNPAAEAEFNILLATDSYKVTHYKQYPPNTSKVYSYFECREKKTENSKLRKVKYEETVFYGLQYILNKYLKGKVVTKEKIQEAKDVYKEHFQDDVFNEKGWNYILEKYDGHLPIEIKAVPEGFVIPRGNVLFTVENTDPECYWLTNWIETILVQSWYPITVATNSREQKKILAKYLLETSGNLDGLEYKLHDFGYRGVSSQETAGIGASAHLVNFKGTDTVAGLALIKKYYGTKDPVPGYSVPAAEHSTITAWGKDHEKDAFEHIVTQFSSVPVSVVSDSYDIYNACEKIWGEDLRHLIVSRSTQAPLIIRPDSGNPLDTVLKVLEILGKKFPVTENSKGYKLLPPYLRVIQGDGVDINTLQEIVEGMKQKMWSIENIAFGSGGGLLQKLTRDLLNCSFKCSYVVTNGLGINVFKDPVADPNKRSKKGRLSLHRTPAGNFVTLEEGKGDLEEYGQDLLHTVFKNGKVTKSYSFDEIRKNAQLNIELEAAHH

In general, IC50 refers to the concentration needed to halve the response being measured. The term inhibition denotes the change of the read-out against control, counted positive when it falls. Take `O=C(c1ccc2nc(-c3ccc(F)cc3)c(-c3ccc(F)cc3)nc2c1)N1CCc2nc[nH]c2C1` [Compound I-121, [2,3-bis(4-fluorophenyl)quinoxalin-6-yl](3,4,6,7-tetrahydro-5H-imidazo[4,5-c]pyridin-5-yl)methanone]: the IC50 at hNAMPT protein was 2000 to 10000 nM. Further, the inhibition at 1 µM stood at 12% at hNAMPT protein (compound concentration 1 μM) and 99% in the assay on PC3 cells (setting [1]).
On to `O=C(NCCc1ncc[nH]1)c1ccc2nc(-c3ccc(F)cc3)c(-c3ccc(F)cc3)nc2c1` [Compound I-122, 2,3-Bis(4-fluorophenyl)-N-[2-(1H-imidazol-2-yl)ethyl]quinoxaline-6-carboxamide], for which, on hNAMPT protein, the IC50 lay in the range of 2000 to 10000 nM. At hNAMPT protein (compound concentration 1 μM), the inhibition at 1 µM came to 60%. In addition, in the assay on PC3 cells (setting [2]), the inhibition at 1.667 µM was 4%.
Regarding `NC(=O)c1cn2c(n1)CN(C(=O)c1ccc3nc(-c4ccc(F)cc4)c(-c4ccc(F)cc4)nc3c1)CC2` [Compound I-123, 7-{[2,3-bis(4-fluorophenyl)quinoxalin-6-yl]carbonyl}-5,6,7,8-tetrahydroimidazo[1,2-a]pyrazine-2-carboxamide], the IC50 at hNAMPT protein is 2000 to 10000 nM. For the same compound, the inhibition at 1 µM on hNAMPT protein (compound concentration 1 μM) was determined as 31%; with PC3 cells (setting [1]), 96%.
Taken in the same sequence, the figures for `O=C(NCCCn1ccnc1)c1ccc2nc(-c3ccccc3)c(N3CCCC3)nc2c1` [Compound I-124, N-[3-(1H-imidazol-1-yl)propyl]-2-phenyl-3-(pyrrolidin-1-yl)quinoxaline-6-carboxamide] were 1000 to 2000 nM, 38% and 27%.
Taken in the same sequence, the figures for `CS(=O)(=O)N1CCN(c2nc3ccc(C(=O)NCCCn4ccnc4)cc3nc2-c2ccccc2)CC1` [Compound I-125, N-[3-(1H-imidazol-1-yl)propyl]-2-[4-(methylsulfonyl)piperazin-1-yl]-3-phenylquinoxaline-6-carboxamide] were 100 to 500 nM, 73% and -7%.
Taken in the same sequence, the figures for `CN(c1nc2cc(C(=O)NCCCn3ccnc3)ccc2nc1-c1ccccc1)C1CC1` [Compound I-126, 3-[cyclopropyl(methyl)amino]-N-[3-(1H-imidazol-1-yl)propyl]-2-phenylquinoxaline-6-carboxamide] were 2000 to 10000 nM, 12% and 93%.
In the case of `CN1CCN(c2nc3cc(C(=O)NCCCn4ccnc4)ccc3nc2-c2ccccc2)CC1=O` [Compound I-127, N-[3-(1H-imidazol-1-yl)propyl]-3-(4-methyl-3-oxopiperazin-1-yl)-2-phenylquinoxaline-6-carboxamide], at hNAMPT protein, the half-inhibitory concentration (IC50) was in the range of 2000 to 10000 nM. The inhibition at 1 µM on hNAMPT protein (compound concentration 1 μM) is 16%; in the assay on PC3 cells (setting [1]) it was 95%.
Taken in the same sequence, the figures for `CN1CCN(c2nc3ccc(C(=O)NCCCn4ccnc4)cc3nc2-c2ccccc2)CC1` [Compound I-128, N-[3-(1H-imidazol-1-yl)propyl]-2-(4-methylpiperazin-1-yl)-3-phenylquinoxaline-6-carboxamide] were 500 to 1000 nM, 60% and -7%.
Taken in the same sequence, the figures for `CS(=O)(=O)N1CCN(c2nc3cc(C(=O)NCCCn4ccnc4)ccc3nc2-c2ccccc2)CC1` [Compound I-129, N-[3-(1H-imidazol-1-yl)propyl]-3-[4-(methylsulfonyl)piperazin-1-yl]-2-phenylquinoxaline-6-carboxamide] were 100 to 500 nM, 70% and -6%.
For the compound `O=C(NCCc1ccccn1)c1ccc2nc(N3CCC(C4CCNCC4)CC3)c(-c3ccccc3)nc2c1` [Compound I-130, 2-(4,4′-Bipiperidin-1-yl)-3-phenyl-N-[2-(pyridin-2-yl)ethyl]quinoxaline-6-carboxamide], at hNAMPT protein, the concentration for half-maximal inhibition (IC50) is 100 to 500 nM and the inhibition at 1 µM was found to be 81%. Besides, the inhibition at 1 µM in the assay on PC3 cells (setting [1]) stood at 93%.
Turning to `N#Cc1ccc(-c2nc3ccc(C(=O)NCCCn4ccnc4)cc3nc2-c2ccccc2)cc1` [Compound I-131, 2-(4-cyanophenyl)-N-[3-(1H-imidazol-1-yl)propyl]-3-phenylquinoxaline-6-carboxamide], the half-maximal inhibitory concentration (IC50) at hNAMPT protein was 500 to 1000 nM. In addition, the inhibition at 1 µM is 64% on hNAMPT protein (compound concentration 1 μM) and -8% with PC3 cells (setting [1]).
Regarding `O=C(NCc1ccc2[nH]cnc2c1)c1ccc2nc(N3CCOCC3)c(-c3ccc(F)cc3)nc2c1` [Compound I-132, N-(1H-Benzimidazol-5-ylmethyl)-3-(4-fluorophenyl)-2-(morpholin-4-yl)quinoxaline-6-carboxamide], on hNAMPT protein, the IC50 was 500 to 1000 nM and the inhibition at 1 µM was found to be 56%. Besides, the inhibition at 1.667 µM in the assay on PC3 cells (setting [2]) came to 2%.
For `O=C(NCc1ccc2cn[nH]c2c1)c1ccc2nc(N3CCCCC3)c(-c3ccc(F)cc3)nc2c1` [Compound I-133, 3-(4-fluorophenyl)-N-(1H-indazol-6-ylmethyl)-2-(piperidin-1-yl)quinoxaline-6-carboxamide], the concentration for half-maximal inhibition (IC50) on hNAMPT protein is 100 to 500 nM. Moreover, at hNAMPT protein (compound concentration 1 μM), the inhibition at 1 µM was 68%. The inhibition at 1.667 µM in the assay on PC3 cells (setting [2]) stood at 3%.
With `COc1cccc(-c2nc3ccc(C(=O)NCCc4ncc[nH]4)cc3nc2-c2cccc(OC)c2)c1` [Compound I-134, N-[2-(1H-imidazol-2-yl)ethyl]-2,3-bis(3-methoxyphenyl)quinoxaline-6-carboxamide], on hNAMPT protein, the IC50 lay within 500 to 1000 nM. For the same compound, the inhibition at 1 µM is 65% on hNAMPT protein (compound concentration 1 μM) and -3% in the assay with PC3 cells (setting [1]).
Take `CC(=O)Nc1ccccc1-c1nc2cc(C(=O)NCCCn3ccnc3)ccc2nc1-c1ccccc1` [Compound I-135, 3-(2-acetamidophenyl)-N-[3-(1H-imidazol-1-yl)propyl]-2-phenylquinoxaline-6-carboxamide]: the IC50 on hNAMPT protein lay within 2000 to 10000 nM. The inhibition at 1 µM on hNAMPT protein (compound concentration 1 μM) amounted to 16%; in the assay with PC3 cells (setting [1]), 101%.
Taken in the same sequence, the figures for `O=C(NCCCn1ccnc1)c1ccc2nc(N3CCC(N4CCCC4=O)CC3)c(-c3ccccc3)nc2c1` [Compound I-136, N-[3-(1H-imidazol-1-yl)propyl]-2-[4-(2-oxopyrrolidin-1-yl)piperidin-1-yl]-3-phenylquinoxaline-6-carboxamide] were 100 to 500 nM, 83% and -7%.
As to `O=C(NCCCn1ccnc1)c1ccc2nc(N3CCC3)c(-c3ccccc3)nc2c1` [Compound I-137, 2-(Azetidin-1-yl)-N-[3-(1H-imidazol-1-yl)propyl]-3-phenylquinoxaline-6-carboxamide], at hNAMPT protein, the IC50 lay within 2000 to 10000 nM and the inhibition at 1 µM came out at 18%. Further, the inhibition at 1 µM in the assay with PC3 cells (PC-3, 72 h) amounted to 6%.
As for `O=C(NCCCc1cncnc1)c1ccc2nc(N3CCCCC3)c(-c3ccc(F)cc3)nc2c1` [Compound I-138, 3-(4-fluorophenyl)-2-(piperidin-1-yl)-N-[3-(pyrimidin-5-yl)propyl]quinoxaline-6-carboxamide], the IC50 on hNAMPT protein is 100 to 500 nM. On hNAMPT protein (compound concentration 1 μM), the inhibition at 1 µM came to 86%. In the assay with PC3 cells (setting [2]), the inhibition at 1.667 µM is more than 99%.
With `O=C(NCCn1nnnc1S)c1ccc2nc(-c3ccc(F)cc3)c(-c3ccc(F)cc3)nc2c1` [Compound I-139, 2,3-bis(4-fluorophenyl)-N-[2-(5-sulfanyl-1H-tetrazol-1-yl)ethyl]quinoxaline-6-carboxamide], the IC50 on hNAMPT protein is 1000 to 2000 nM. In addition, the inhibition at 1 µM at hNAMPT protein (compound concentration 1 μM) came out at 41%; with PC3 cells (setting [1]), 99%.
